Data taken from patent US8592466B2, “Methods for treating conditions caused by higher-than-normal dopaminergic activity in basal ganglia” (Neuropill, Inc., priority 2008, dated 2013).

Assay: Phase I cocaine interaction study: heart rate and blood pressure
Conditions: cocaine 20 mg and 40 mg i.v., most P-values<0.05

COC(=O)[C@H]1[C@@H](OC(=O)c2ccccc2)C[C@@H]2CC[C@H]1N2C [cocaine, reference compound]
HR/SBP/DBP after cocaine infusion: significant elevation
